Test results published in the supplement of paper PMC9663587.

What was measured:
[1] = compound: CC(=O)O[C@H]1C(=O)[C@@]2(C)[C@H]([C@H](OC(=O)c3ccccc3)[C@]3(O)C[C@H](OC(=O)[C@H](O)[C@@H](NC(=O)c4ccccc4)c4ccccc4)C(C)=C1C3(C)C)[C@]1(OC(C)=O)CO[C@@H]1C[C@@H]2O [Paclitaxel]
[2] = compound: CC(C)NC[C@@H](C(=O)N1CCN(c2ncnc3c2[C@H](C)C[C@H]3O)CC1)c1ccc(Cl)cc1 [Ipatasertib/GDC0068]
[3] = compound: CCNC(=O)c1noc(-c2cc(C(C)C)c(O)cc2O)c1-c1ccc(CN2CCOCC2)cc1 [Luminespib/NVP-AUY922]
[4] = compound: CN(C)C/C=C/C(=O)Nc1ccc(O[C@@H]2CCC[C@@H](Nc3ncc(Cl)c(-c4c[nH]c5ccccc45)n3)C2)cc1 [BSJ-01-175]
[5] = compound: CN(C)CC[C@H](CSc1ccccc1)Nc1ccc(S(=O)(=O)NC(=O)c2ccc(N3CCN(Cc4ccccc4-c4ccc(Cl)cc4)CC3)cc2)cc1[N+](=O)[O-] [ABT-737]
[6] = compound: T1, CN1CC[C@H](c2c(O)cc(O)c3c(=O)cc(-c4ccccc4Cl)oc23)[C@H](O)C1 [Flavopiridol]
[7] = compound: COc1cccc2c1C(=O)c1c(O)c3c(c(O)c1C2=O)C[C@@](O)(C(=O)CO)C[C@@H]3O[C@H]1C[C@H](N)[C@H](O)[C@H](C)O1 [Doxorubicin]
[8] = compound: Cc1nc(-c2cn3c(n2)-c2ccc(-c4cnn(C(C)(C)C(N)=O)c4)cc2OCC3)n(C(C)C)n1 [Taselisib/GDC0032]
[9] = compound: O=C(c1cc(Cc2n[nH]c(=O)c3ccccc23)ccc1F)N1CCN(C(=O)C2CC2)CC1 [Olaparib/AZD2281]
[10] = compound: C=CC(=O)Nc1ccc(C(=O)Nc2[nH]nc3c2CN(C(=O)N[C@H](CN(C)C)c2ccccc2)C3(C)C)cc1 [YKL-5-124]; assay: GR value, 72 h; higher = faster growth (1 = untreated, <0 = killing);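 note: breast cancer and non-malignant breast epithelial lines, nine half-log doses, viable cells counted by Hoechst and LIVE/DEAD dye imaging versus time-zero plates and DMSO controls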
[11] = compound: CC(=O)c1c(C)c2cnc(Nc3ccc(N4CCN(CCOCCOCCOCCNC(=O)COc5cccc6c5C(=O)N(C5CCC(=O)NC5=O)C6=O)CC4)cn3)nc2n(C2CCCC2)c1=O [BSJ-03-123]; assay: as above
[12] = compound: CC(=O)c1c(C)c2cnc(Nc3ccc(N4CCNCC4)cn3)nc2n(C2CCCC2)c1=O; assay: as above
[13] = compound: CCN1CCN(Cc2ccc(Nc3ncc(F)c(-c4cc(F)c5nc(C)n(C(C)C)c5c4)n3)nc2)CC1; assay: as above
[14] = compound: CCc1cnn2c(NCc3ccc[n+]([O-])c3)cc(N3CCCC[C@H]3CCO)nc12; assay: as above
[15] = compound: CN(C)C(=O)c1cc2cnc(Nc3ccc(N4CCNCC4)cn3)nc2n1C1CCCC1 [LEE011/Ribociclib]; assay: as above
[16] = compound: CN(C)C/C=C/C(=O)Nc1ccc(C(=O)N2CCC[C@@H](Nc3ncc(Cl)c(-c4c[nH]c5ccccc45)n3)C2)cc1 [THZ531]; assay: as above
[17] = compound: T1, Flavopiridol; assay: as above
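Throughout, for GR50, 72 h: breast cancer and non-malignant breast epithelial cell lines, Deep Dye Drop or Dye Drop imaging, nine half-log doses, GR normalized to time-zero plates and DMSO-only controls.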

MCF12A
GR50, 72 h [1]: 0.00577 µM
GR50, 72 h [2]: > 10 µM
GR50, 72 h [3]: 0.0103 µM
GR50, 72 h [4]: 4.32 µM
GR50, 72 h [5]: > 10 µM
GR50, 72 h [6]: 0.38 µM
GR50, 72 h [7]: 0.0155 µM
GR50, 72 h [8]: 1.11 µM
GR50, 72 h [9]: > 10 µM
GR value ([10]; 0.001 µM): 0.573 GR
GR value ([10]; 0.003162 µM): 0.316 GR
GR value ([10]; 0.01 µM): 0.235 GR
GR value ([10]; 0.03162 µM): 0.17 GR
GR value ([10]; 0.1 µM): 0.135 GR
GR value ([10]; 0.3162 µM): 0.153 GR
GR value ([10]; 1 µM): 0.131 GR
GR value ([10]; 3.162 µM): 0.107 GR
GR value ([10]; 10 µM): 0.0273 GR
GR value ([11]; 0.001 µM): 0.975 GR
GR value ([11]; 0.003162 µM): 0.912 GR
GR value ([11]; 0.01 µM): 0.971 GR
GR value ([11]; 0.03162 µM): 0.952 GR
GR value ([11]; 0.1 µM): 0.98 GR
GR value ([11]; 0.3162 µM): 0.942 GR
GR value ([11]; 1 µM): 0.883 GR
GR value ([11]; 3.162 µM): 0.753 GR
GR value ([11]; 10 µM): 0.126 GR
GR value ([12]; 0.0003162 µM): 1.04 GR
GR value ([12]; 0.001 µM): 1.03 GR
GR value ([12]; 0.003162 µM): 1.02 GR
GR value ([12]; 0.01 µM): 0.974 GR
GR value ([12]; 0.03162 µM): 0.921 GR
GR value ([12]; 0.1 µM): 0.889 GR
GR value ([12]; 0.3162 µM): 0.912 GR
GR value ([12]; 1 µM): 0.758 GR
GR value ([12]; 3.162 µM): 0.667 GR
GR value ([13]; 0.001 µM): 0.987 GR
GR value ([13]; 0.003162 µM): 0.945 GR
GR value ([13]; 0.01 µM): 0.955 GR
GR value ([13]; 0.03162 µM): 0.943 GR
GR value ([13]; 0.1 µM): 0.872 GR
GR value ([13]; 0.3162 µM): 0.822 GR
GR value ([13]; 1 µM): 0.727 GR
GR value ([13]; 3.162 µM): 0.616 GR
GR value ([13]; 10 µM): 0.386 GR
GR value ([14]; 0.0001 µM): 1.03 GR
GR value ([14]; 0.0003162 µM): 0.99 GR
GR value ([14]; 0.001 µM): 1.03 GR
GR value ([14]; 0.003162 µM): 1.03 GR
GR value ([14]; 0.01 µM): 1.08 GR
GR value ([14]; 0.03162 µM): 0.685 GR
GR value ([14]; 0.1 µM): -0.289 GR
GR value ([14]; 1 µM): -0.327 GR
GR value ([15]; 0.001 µM): 0.967 GR
GR value ([15]; 0.003162 µM): 0.953 GR
GR value ([15]; 0.01 µM): 0.948 GR
GR value ([15]; 0.03162 µM): 0.927 GR
GR value ([15]; 0.1 µM): 0.984 GR
GR value ([15]; 0.3162 µM): 0.897 GR
GR value ([15]; 1 µM): 0.867 GR
GR value ([15]; 3.162 µM): 0.914 GR
GR value ([15]; 10 µM): 0.792 GR
GR value ([16]; 0.0001 µM): 0.942 GR
GR value ([16]; 0.0003162 µM): 1.02 GR
GR value ([16]; 0.001 µM): 1 GR
GR value ([16]; 0.003162 µM): 0.929 GR
GR value ([16]; 0.01 µM): 1.01 GR
GR value ([16]; 0.03162 µM): 0.967 GR
GR value ([16]; 0.1 µM): 1 GR
GR value ([16]; 0.3162 µM): 0.894 GR
GR value ([16]; 1 µM): -0.0356 GR
GR value ([17]; 0.0001 µM): 1.04 GR
GR value ([17]; 0.0003162 µM): 0.977 GR
GR value ([17]; 0.001 µM): 0.895 GR
GR value ([17]; 0.003162 µM): 0.982 GR
GR value ([17]; 0.01 µM): 0.961 GR
GR value ([17]; 0.03162 µM): 0.949 GR
GR value ([17]; 0.1 µM): 0.856 GR
GR value ([17]; 0.3162 µM): 0.621 GR
GR value ([17]; 1 µM): -0.121 GR
